Reference: PubChem BioAssay (NCI)
“And” between values parts separate entries of the source, which are not always exact repeats. Identical values can stand only once.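 Assay format: 96-well plates, 48-hour exposure. GI50: concentration for 50% inhibition of growth. TGI: total growth inhibition.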

Each molecule was assayed on OVCAR-5 ovarian (assay: DTP human tumour cell line panel, 48 h).

| Structure (SMILES) | GI50 | TGI |
| --- | --- | --- |
| CC(C)c1ccc2c(c1)CC[C@@H]1[C@@](C)(C(=O)O)CCC[C@]21C | 5.49 µM | 25.6 µM |
| CCN(CC)CCOc1ccc(-c2nc3cc(Cl)ccc3s2)cc1 | 1.6 µM | 3.09 µM |
| C=C1C(=O)O[C@@H]2C[C@@H]1CC/C(C)=C/CC/C(C)=C/CC[C@@]2(C)O | 22.1 µM | 39.4 µM |
| [N-]=[N+]=NC12CC3C4CC5CC3C(C1)C(C5)C4C2 | – | > 100 µM |
| O=C1c2cccc(NCCCNCCO)c2C(=O)c2cccc(NCCCNCCO)c21 | – | 6.28 µM and 6.41 µM |
| Cc1cc(CC(O)c2ccc(Cl)c(Cl)c2)nc(=O)[nH]1 (configuration not stated) | – | > 100 µM |
| Cn1c2c(c3ccccc31)C1CCCCCCC1C1C(=O)OC(=O)C21 (configuration not stated) | – | > 100 µM |
| Cc1ccc(S(=O)(=O)N(CC(=O)O)c2ccccc2)cc1 | – | > 100 µM |
| COc1ccc(/C=C(/C(=O)N2CCN(c3ccccc3)CC2)c2cc(OC)c(OC)c(OC)c2)cc1O | 0.678 µM | > 100 µM |
| O=C1/C(=C/c2ccc(Br)cc2)COc2ccc(O)c(O)c21 | 1.5 µM | 3.04 µM |
| O=C(Nc1nc2ccc(C(F)(F)F)cc2s1)c1cc(Cl)ccc1O | 3.67 µM | > 100 µM |
| COc1cnc2c(c1)C(=O)c1c-2n(CCCNC(C)C)c(=O)c2cc(Cl)ccc12 | 1.7 µM | 3.5 µM |
| CN1CCN(CCOc2ccc(-c3cnc4c(-c5ccccc5F)cnn4c3)cc2)CC1 | 1.72 µM | 3.23 µM |
| CN(C)N=Nc1ccc(NC=O)cc1 | – | > 100 µM |
| COc1cc(N(CCC#N)CCC#N)ccc1/C(N=Nc1ccc([N+](=O)[O-])cc1)=N/NC(=O)c1cc(Br)ccc1O | 50 µg/mL | > 150 µg/mL |

Each molecule was assayed on SF-268 CNS (assay: DTP human tumour cell line panel, 48 h).

| Structure (SMILES) | GI50 | TGI |
| --- | --- | --- |
| OC[C@H]1C[C@](O)(c2ccc(Cl)cc2)[C@@H](c2ccc(Cl)cc2)O1 | 26.8 µM | > 100 µM |
| CC(C)N(C(=O)C12C3C4C5(C#N)C3C1(C#N)C5C42I)C(C)C (configuration not stated) | – | > 100 µM |
| C=COCCCOc1ccccc1 | – | > 100 µM |
| COc1cc2nc(-c3ccc(Cl)cc3)cc(OCCCN3CCCCC3)c2cc1OC | 3.2 µM | > 100 µM |
| COc1ccc2c3c([nH]c2c1[N+](=O)[O-])C(C)=NCC3 | – | 64.7 µM |
| C=C(c1nc2ccc(Cl)cc2[nH]c1=O)C(O)c1ccc(C(O)C(=O)c2nc3ccc(Cl)cc3[nH]c2=O)cc1 (configuration not stated) | – | > 100 µM |
| O=c1c2sc(=S)n(-c3ccc(F)cc3)c2ncn1Cc1ccc(F)cc1F | 76 µM | > 100 µM |
| CC(C)(C)CC(C)(C)c1cc2c(O)c(c1)Cc1cc(C(C)(C)CC(C)(C)C)cc(c1O)Cc1cc(C(C)(C)CC(C)(C)C)cc(c1O)Cc1cc(C(C)(C)CC(C)(C)C)cc(c1O)C2 | – | > 100 µM |
| C=CCCCCC/C=C\[C@H](O)C#CC#C/C=C/CO | 24.5 µM | 70.5 µM |
| COc1cc(C#CC(=O)OC/C=C/c2ccc3c(c2)OCO3)cc(OC)c1OC | – | 59.5 µM |
| Cc1cc([N+](=O)[O-])ccc1Nc1cccc(Cl)c1C | – | 35.8 µM |
| O/N=C/C1C(OCc2ccccc2)C(OCc2ccccc2)C(OCc2ccccc2)CN1Cc1ccccc1 (configuration not stated) | – | > 100 µM |
| O=C1NC(=O)C(c2cnc3ccccn23)=C1c1cn2c3c(cc(F)cc13)CN(C(=O)N1CCCCC1)CC2 | 13.4 µM | 39.4 µM |
| Clc1nc2ccccc2nc1CI | 5.23 µM | 17.9 µM |
| [Cl][Hg][c]1cc(Br)cc(Br)c1 | 1.76 µM | 4.28 µM |
| C=C1C(=O)O[C@@H]2C[C@@H]1CC/C(C)=C/CC/C(C)=C/CC[C@@]2(C)O | 16.3 µM | 35.6 µM |
| [N-]=[N+]=NC12CC3C4CC5CC3C(C1)C(C5)C4C2 | – | > 100 µM |
| O=C1c2cccc(NCCCNCCO)c2C(=O)c2cccc(NCCCNCCO)c21 | 0.58 µM and 1.5 µM | 2.82 µM and 4.69 µM |
| Cc1cc(CC(O)c2ccc(Cl)c(Cl)c2)nc(=O)[nH]1 (configuration not stated) | – | > 100 µM |
| CC1=NNC(=O)C2CCC(=O)N12 (configuration not stated) | – | > 100 µM |
| Cn1c2c(c3ccccc31)C1CCCCCCC1C1C(=O)OC(=O)C21 (configuration not stated) | – | > 100 µM |
| Cc1ccc(S(=O)(=O)N(CC(=O)O)c2ccccc2)cc1 | – | > 100 µM |
| COc1ccc(/C=C(/C(=O)N2CCN(c3ccccc3)CC2)c2cc(OC)c(OC)c(OC)c2)cc1O | 0.543 µM | > 100 µM |
